According to patent US9012223B2, “Methods for enhancing genome stability and telomere elongation in embryonic stem cells” (The United States of America, as represented by the …, priority 2009, dated 2015):

Assays:
Zscan4 [1] = experiment: Time-course of Emerald GFP+ (Zscan4+) cells by flow cytometry after retinoid treatment; assay type: cell-based, mouse; conditions: for day of peak of fraction of Zscan4+ cells / fraction of Zscan4+ cells / secondary increase of Zscan4+ cells: atRA, 9-cis RA, 13-cis RA 50 nM; for day of peak of fraction of Zscan4+ cells / secondary increase of Zscan4+ cells: vitamin A 5 μM; for fraction of Zscan4+ cells: vitamin A 5 μM final concentration, up to 7 days; for secondary increase of Zscan4+ cells: within 7 days of treatment
Excerpt: FIG. 9 is a line graph showing the percentage of Emerald cells following treatment of MC1-ZE7 cells in the presence or absence of leukemia inhibitory factor (LIF) and in the presence or absence of retinoic acid (RA). Cells were passaged to gelatin-coated plates in the presence of LIF (LIF+) and absence of atRA (atRA−). The next day (Day 0), the culture medium of each well was changed to four different conditions: LIF+ atRA−, LIF+ atRA+, LIF− atRA−, and LIF− atRA+. The cells were maintained in the same culture medium for 8 days with the medium changes every day, but without passaging. Cells were harvested every day and the number of Emerald GFP^+ cells was measured by flow cytometry.
(§1) FIG. 10A is a line graph showing the effect of different retinoids (atRA, 9-cis RA, 13-cis RA or vitamin A) on the percentage of Zscan4^+ cells in culture. Shown is the percentage of Emerald^+ MC1-ZE-7 cells up to seven days following exposure to the retinoid. FIG. 10B is a line graph showing the effect of the different reintoids on ES cell proliferation.
A 20 mM stock solution of all-trans retinoic acid (atRA) in ethanol was used at a final concentration of 1 μM, 2 μM, or 50 nM. 9-cis RA and 13-cis RA were used at a final concentration of […] final. Vitamin A (retinol) was used at a final concentration of 5 μM.
Zscan4 Expression is Induced Transiently by all-Trans Retinoic Acid (atRA) Mouse ES cells (referred to as pZscan4-Emerald7 (MC1-ZE7) cells) in which a plasmid carrying a green fluorescent protein (Emerald: Em) regulated under the promoter of Zscan4c is integrated in the genome were used in these studies. […] Cells were first passaged to gelatin-coated plates in the presence of leukemia inhibitory factor (LIF+) and absence of atRA (atRA−). The next day (Day 0), the culture medium of each well was changed to four different conditions: LIF+ atRA−, LIF+ atRA+, LIF− atRA−, and LIF− atRA+. The final concentration of atRA was […]. The cells were maintained in the same culture medium for 8 days with medium changes every day, but without passaging. Cells were harvested every day and the number of Emerald GFP^+ cells was measured by flow cytometry (Guava).
(§2) Although atRA is most commonly used for mammalian cell culture systems, there are other retinoids that sometimes have similar activities on the cells. To test other retinoids for Zscan4-inducibility, similar time-course kinetic assays were carried out using atRA (50 nM final concentration), 9-cis RA (50 nM final concentration), 13-cis RA (50 nM final concentration), or vitamin A (5 μM final concentration). […] Zscan4^+ cells may have growth advantages over Zscan4^− cells in the presence of vitamin A and 13-cis RA.

MC1-ZE7 cells = experiment: Effect of retinoids on ES cell proliferation; assay type: cell-based, mouse; conditions: atRA, 9-cis RA, 13-cis RA 50 nM, vitamin A 5 μM; up to 7 days
Excerpt: as §1, §2

Zscan4 [2] = conditions: MC1-ZE7 cells, LIF+; H2O2 100 μM, 300 μM or 1000 μM; two days
Description: MC1-ZE7 cells were cultured in standard ES cell medium (LIF+). […] The cells were cultured for two days and the fraction of Emerald^+ (i.e., Zscan4^+ cells) was measured by flow cytometry.
MC1-ZE7 cells were cultured in standard ES cell medium (LIF+). […] The cells were cultured for two days and the percentage of Em^+ (i.e., Zscan4^+ cells) was determined by the Guava flow cytometry (Guava).

ES cells = experiment: Survival of ES cells after treatment with DNA-damaging agent (live cell count); assay type: cell-based, mouse; conditions: then 3 more days
Description: FIGS. 12A and 12B are graphs showing survival of control ES cells (A) and tet-Zscan4 ES cells (B) after treatment with mitomycin C (MMC). Control ES cells contained a control plasmid (tet-Empty). Cells were cultured in standard ES medium (LIF+) and passaged into two groups: (1) in the absence of doxycycline (Dox) or (2) in the presence of Dox at a final concentration of 0.2 μg/ml. The Dox+ and Dox− media were changed every day. On the fourth day, the cells were cultured for 6 hours in the presence of MMC at a final concentration ranging from 0 to 600 ng/ml. MMC was removed from the culture by changing the media and cells were then incubated for 3 more days in the Dox+ medium, with the medium changed every day. Cells were harvested and the number of live cells was counted.
Control cells (carrying the tet-Empty plasmid) and Zscan4-expressing cells (carrying the tet-Zscan4 plasmid) were used in this study. The cells were cultured in standard ES medium (LIF+). Cells were passaged into two groups: (1) in the absence of doxycycline (Dox−), or (2) in the presence of doxycycline (Dox+) at a final concentration of 0.2 μg/ml. The Dox+ and Dox− media were changed every day. On the fourth day, the cells were cultured for 6 hours in the presence of MMC at a final concentration ranging from 0 to 600 ng/ml. […] Cells were harvested and the number of live cells was counted.

[3] = MC1-ZE7 cells, atRA 2 M (so in the source), LIF+ and LIF-

Row | SMILES | day of peak of fraction of Zscan4+ cells (Zscan4 [1]; MC1-ZE7 cells) [days] | fraction of Zscan4+ cells (Zscan4 [1]; MC1-ZE7 cells) | secondary increase of Zscan4+ cells (Zscan4 [1]) | effect on cell proliferation (MC1-ZE7 cells) | number (percentage) of Zscan4+ (Em+) cells (Zscan4 [2]) | survival of Zscan4-expressing (tet-Zscan4) ES cells against the DNA-damaging agent, Dox- versus Dox+ (ES cells; Zscan4 induced by Dox removal, agent for 6 hours) | cell survival rate (ES cells; control (tet-Empty) ES cells, MMC 0 to 600 ng/ml for 6 hours) | decline of Zscan4+ cell induction to basal level (Zscan4 [1]; [3]) | time of peak of Em+ (Zscan4+) cell fraction (Zscan4 [1]; [3]) | fraction of Em+ cells (i.e., Zscan4+ cells) in the culture (Zscan4 [1]; MC1-ZE7 cells, atRA 2 M (so in the source), LIF+ and LIF- conditions, 8 days, daily harvest)
1 | CC1=C(/C=C/C(C)=C\C=C\C(C)=C\C(=O)O)C(C)(C)CCC1 [9-cis RA, 9-cis retinoic acid] | 2 | transiently increased | not | nearly complete suppression of cell proliferation | – | – | – | – | – | –
2 | CC1=C(/C=C/C(C)=C/C=C/C(C)=C\C(=O)O)C(C)(C)CCC1 [13-cis RA, 13-cis-retinoic acid] | 2 | transiently increased | observed | moderate suppression of cell proliferation | – | – | – | – | – | –
3 | OO [H2O2, Hydrogen peroxide] | – | – | – | – | increases the number of Zscan4^+ cells | – | – | – | – | –
4 | CO[C@@]12[C@H](COC(N)=O)C3=C(C(=O)C(C)=C(N)C3=O)N1C[C@@H]1N[C@@H]12 [MMC, mitomycin C] | – | – | – | – | – | increased survival | the higher the dose of MMC, the lower the cell survival rate | – | – | –
5 | CC1=C(/C=C/C(C)=C/C=C/C(C)=C/C(=O)O)C(C)(C)CCC1 [atRA, all-trans retinoic acid] | 2 | transiently increased | not | nearly complete suppression of cell proliferation | – | – | – | declined to the basal level by the fourth day | peaked on the second day | dramatically induced
6 | CC1=C(/C=C/C(C)=C/C=C/C(C)=C/CO)C(C)(C)CCC1 [vitamin A, retinol] | 2 | transiently increased | observed | did not affect cell proliferation | – | – | – | – | – | –
